Read-outs that look alike come from different tables or passages of the source.
What was measured:
[1] = tested on: Mouse; conditions: cited from earlier work
[2] = in vivo; conditions: male, C57BL/6, mouse, in vivo, po
Procedure: (§1) This product was added to the normal diet and consumed over a period of eight hours. Food was selected as the vehicle of choice due to solubility concerns of the Oxaloacetate and because of the anticipated use of the product.
(§2) C57BL/6 mice were used in this test. These mice were used because they are often used for longevity studies. Additionally, there is substantial information on Chronic exposure of the test compound with this breed of mice.
(§3) Male mice were used in the Acute study because male mice were used in the Chronic exposure study. Each animal was housed separately and was 2 months of age.
(§4) 5,000 mg/kg doses of the test compound were added to food, as it is anticipated that this product will be taken with a meal. Specifically,
(§5) Each animal was caged separately. Prior to feeding, the bedding in the animal cage was changed. Food was prepared by dissolving 100 mg of the test compound with each ml of distilled water, then rolling the appropriate amount of food pellets in the amount of water until the waster was absorbed to obtain the proper dosage per animal. The test compound laced food was placed in the cage with the animal at the end of the day. […] Water was provided freely.
(§6) After dosing the animals with the test compound, the animals were returned to a standard Ad Librium diet of food pellets and water.

[3] = tested on: C57BL/6 mice; test: in vivo
Procedure: as §1, §2, §3, §4, §5, §6

[4] = tested on: C57BL/6 mice; conditions: for Average increase in lifespan compared to the control group: daily dosage of 380 mg/kg, male C57BL/6 mice started at 9 months
Procedure: as §1
C57BL/6 mice were used in this test. These mice were used because they are often used for longevity studies.
Male mice were used in the Chronic study because of their linear increase in weight with time. Females are less linear in their increase.
Each animal was housed separately and the test was started with older animals (9 months of age) as human use is primarily anticipated to be in the older populations. The test was continued until all animals died.
25 Male C57BL/6 mice with the same day of birth (plus or minus 1 week) were selected for the test. The mice were evaluated for fasting glucose levels and weight, and broken into three similar groups based on equalization of weight and fasting glucose levels.
Each animal was caged separately in a low stimulus environment and fed one of three diets. The first group was the Control Group, and it was fed an ad Librium balanced diet of mouse food pellets. The second group was calorie restricted 40% from the control group, as established by baseline feeding. […] At the end of 21 weeks, 3 mice from each group were sacrificed and their livers exhumed for genomic testing.
The remaining groups of mice were allowed to live the rest of their lives on the individualized diets for humane reasons. The study has been ongoing for 18 months.
The test compound laced food was placed in the cage with the animal at the end of each day. Water was provided freely.

[5] = tested on: genomic expression in the livers; test: Genomic expression in the livers, Affymatrix Mouse Genome 430 2.0 Array; type: in vivo; conditions: for Percentage of genes moving in same direction as Calorie Restricted Mice (correlation): 1.7 fold expression cut-off
Description: In the calorie restricted mice, 1,763 genes changed in expression as compared to the control group. […] Comparison of common genes changed in expression between the Calorie Restricted group and the Oxaloacetic group indicated 363 genes in common.
If a 1.7 fold expression cut-off is used to eliminate false positives (commonly used in the literature), the correlation between the two groups becomes 100% for the genes in common, which drops down to 36 highly expressed or repressed genes. A table of the genes affected is seen in Table 1.

[6] = tested on: microbial growth; test: Preservative function: microbial growth in agar and cornmeal paste; conditions: for microbial growth compared to control preparations: 8 mM in Nematode Growth Agar and cornmeal paste, monitored with a microscope
Description: These compositions where monitored over time with a microscope, and compared to control preparations.

[7] = tested on: Caenorhabditis elegans; test: Lifespan toxicity test of preservative / acidizing agent; type: in vivo
Procedure: (§7) The toxicity of the preservative was tested by examining the lifespan of Caenorhabditis elegans, Drosophila melanogaster, and Mus musculus.
(§8) This dropped the pH of the agar from 6.0 to 5.3. The toxicity of the acidizing agent was tested by examining the lifespan of Caenorhabditis elegans.

[8] = tested on: Drosophila melanogaster; test: Lifespan toxicity test of preservative; type: in vivo
Procedure: as §7

[9] = tested on: Mus musculus; conditions: in vivo
Procedure: as §7

[10] = Acidizing function: pH of agar; type: physicochemical
Procedure: as §8

SMILES: CC(O)C(=O)O (centres unmarked) [Lactic Acid]
- LD50 ([1]; Mouse data, injected, subcutaneous injection): 4,500 mg/kg

SMILES: O=C(O)CC(O)C(=O)O (centres unmarked) [Malic Acid]
- LD50 ([1]; mouse, in vivo, po): 1,600 mg/kg

SMILES: O=C(O)CC(=O)C(=O)O [Oxaloacetic Acid]
- LD50 at 8 h [2]: > 5000 mg/kg
- Survival at limitation dose ([3]; 5,000 mg/kg with food, five male C57BL/6 mice): All animals survived
- LD50 ([3]; male, C57BL/6, mouse, in vivo, po, 8 h): > 5,000 mg/kg
- Increase of residual lifespan over the control group ([4]; 0.4% in food, 380 mg/kg daily, started at age of 9 months): 40%
- Average increase in lifespan compared to the control group ([4]; 0.4% in food): > 20%
- Average increase in lifespan compared to the control group ([4]; 0.4% in food, 380 mg/kg): 25%
- Chronic toxicity compared to the control group ([4]; mouse, in vivo, 380 mg/kg): negative toxicity
- Genes Moving in Opposite Direction as Calorie Restricted Mice ([5]; 1.7 Fold Cut Off): 0
- Genes Moving in Same Direction as Calorie Restricted Mice ([5]; 1.7 Fold Cut Off): 36
- Percentage of genes moving in same direction as Calorie Restricted Mice (correlation) [5]: 100%
- Percentage of genes moving in same direction as Calorie Restricted Mice (correlation) ([5]; listed as Oxaloacetate): 100.0%
- Directional correlation of genomic expression with the calorie restricted group ([5]; 363 genes in common, no cut-off): 98.1%
- OX to C Change ([5]; gene 9130019P20Rik, Affx No. 39136, mouse liver vs control): 1
- Genes changed in expression in common with the Calorie Restricted group ([5]; liver, after 21 weeks): 363
- Number of genes changed in expression as compared with the control group ([5]; liver, after 21 weeks on increasing diet): 765
- microbial growth compared to control preparations [6]: control preparation had more microbial growth
- smallest concentration producing a reduction in microbial activity ([6]; even when the salt is used): 8 mM
- lifespan (toxicity of the preservative) [7]: no decrease in lifespan
- lifespan (toxicity of the acidizing agent) ([7]; 8 mM in agar): no decrease in lifespan
- lifespan (toxicity of the preservative) [8]: no decrease in lifespan
- lifespan (toxicity of the preservative) [9]: no decrease in lifespan
- smallest concentration producing a decrease in pH [10]: 1 mM
- pH of the agar after addition ([10]; 8 mM in Nematode Growth Agar, dropped from 6.0): 5.3

SMILES: O=C([O-])CC(=O)C(=O)O.[Na+] [sodium oxaloacetate salt, sodium oxaloacetate]
- microbial growth compared to control preparations [6]: control preparations had more microbial growth

Source: patent publication US20110064679A1 (priority 2008, published 2011)
